Results on 41 compounds are retold here after patent US6908919B2, “Substituted polycyclic aryl and heteroaryl pyrazinones useful for selective inhibition of the coagulation cascade” (Pharmacia Corporation, priority 1999, dated 2005).

One experiment concerns the target Human thrombin (Homo sapiens, UniProt P00734). Briefly: biochemical. To be noted: for inhibition at 100 µM: read-out: % Inhibition Thrombin II at 100 μM.
Experiment [1] concerns the target T1, recombinant soluble tissue factor and recombinant human factor VIIa (TF-VIIa) (Homo sapiens, UniProt P08709).
T1 construct: conversion of coagulation factor VII to VIIa by Xa; purchased American Diagnostica, Greenwich Conn; host or cells: VIIa purchased; soluble TF made in house in E. coli
Briefly: TF-VIIa Assay. The format is biochemical. The settings on record: for pIC50: read-out: IC50 TF-VIIa; for inhibition at 30 µM: 1 h, at 30 µM inhibitor.

For a further experiment, the target named is Human factor Xa (Homo sapiens, UniProt P00742). Briefly: Xa Assay. The settings on record: for % Inhibition Factor Xa (30 µM): at 30 µM inhibitor; for inhibition at 100 µM: at 100 μM inhibitor. The format is biochemical. On the set-up: purchased Enzyme Research Laboratories, South Bend Ind.

pIC50: −log10 of the molar value. Where two headings read alike, the source gives them in different places.

T1 sequence (P08709 61-212 limits assumed): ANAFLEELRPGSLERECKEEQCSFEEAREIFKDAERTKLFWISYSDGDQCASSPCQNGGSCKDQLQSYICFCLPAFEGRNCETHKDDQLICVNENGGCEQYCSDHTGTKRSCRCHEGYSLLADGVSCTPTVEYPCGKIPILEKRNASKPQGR
T1 sequence (P08709 213-466 limits assumed): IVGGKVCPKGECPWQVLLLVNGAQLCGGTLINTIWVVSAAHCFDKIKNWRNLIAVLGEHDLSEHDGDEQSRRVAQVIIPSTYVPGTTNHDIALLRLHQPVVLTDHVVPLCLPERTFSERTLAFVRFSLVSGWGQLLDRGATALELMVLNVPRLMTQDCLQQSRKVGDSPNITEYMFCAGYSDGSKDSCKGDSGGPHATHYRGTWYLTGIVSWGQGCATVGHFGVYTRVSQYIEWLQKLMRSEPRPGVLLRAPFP
T1 sequence (P13726 33-251 partner limits assumed): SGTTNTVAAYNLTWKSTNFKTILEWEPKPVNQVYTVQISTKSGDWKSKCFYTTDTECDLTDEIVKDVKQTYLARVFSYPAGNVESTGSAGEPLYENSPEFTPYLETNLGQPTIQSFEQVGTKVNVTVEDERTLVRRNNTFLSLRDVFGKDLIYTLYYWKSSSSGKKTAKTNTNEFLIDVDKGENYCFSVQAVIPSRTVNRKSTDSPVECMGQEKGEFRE
Human factor Xa, sequence (P00742 41-179 limits assumed): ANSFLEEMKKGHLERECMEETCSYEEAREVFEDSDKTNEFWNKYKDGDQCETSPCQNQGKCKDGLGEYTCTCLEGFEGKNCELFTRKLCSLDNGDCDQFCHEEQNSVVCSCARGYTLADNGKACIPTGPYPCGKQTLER
Human factor Xa, sequence (P00742 235-488 limits assumed): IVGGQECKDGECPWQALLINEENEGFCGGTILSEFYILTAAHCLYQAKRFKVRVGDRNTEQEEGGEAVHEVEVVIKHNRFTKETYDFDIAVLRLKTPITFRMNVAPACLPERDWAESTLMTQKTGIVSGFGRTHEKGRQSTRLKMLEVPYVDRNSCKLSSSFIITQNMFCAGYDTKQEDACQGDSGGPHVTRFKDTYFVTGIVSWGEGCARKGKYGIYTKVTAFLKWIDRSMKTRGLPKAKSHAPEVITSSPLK

As for `CSc1ccc(N)cc1-c1c(Cl)nc(NC(C)C)c(=O)n1CC(=O)NCc1ccc(C(=N)N)cc1` [Example 111], the pIC50 (as a rule, the negative decadic logarithm of the IC50, by convention in mol/L) is below 4.52 at Human thrombin, 6.92 in experiment [1] and below 4.52 on Human factor Xa.
In the case of `COC(=O)c1cccc(Sc2ccc(N)cc2-c2c(Cl)nc(NC(C)C)c(=O)n2CC(=O)NCc2ccc(C(=N)N)cc2)c1` [Example 112], the pIC50 at Human thrombin is 4.89; in experiment [1], 6.57; against Human factor Xa it was 4.46.
In the same order, the values of `N=C(N)c1ccc(CNC(=O)Cn2c(-c3cccc(C(=N)N)c3)c(Cl)nc(NC3CCC3)c2=O)cc1` [Example 114] are 5.37, 6.42 and 5.19.
On to `N=C(N)c1ccc(CNC(=O)Cn2c(-c3ccc(N)cc3)c(Cl)nc(NC3CCC3)c2=O)cc1` [Example 115], for which the pIC50 against Human thrombin was 5.12; in experiment [1] it was 6.26. Also, at Human factor Xa, the “% Inhibition Factor Xa (30 µM)” value is listed as 10%.
As to `N=C(N)c1ccc(CNC(=O)Cn2c(-c3cc(N)nc(C(=O)O)c3)cnc(NC3CCC3)c2=O)cc1` [Example 120], the figures for the inhibition at 100 µM at Human thrombin and on Human factor Xa were 47% and 43%, respectively. In experiment [1], the pIC50 is 7.00.
Turning to `CC(C)Nc1ncc(-c2cc(N)cc(N)c2)n(CC(=O)NCc2ccc(C(=N)N)cc2)c1=O` [Example 121], the inhibition (commonly the drop in the measured response relative to a control, in per cent) at 83 µM on Human thrombin (read-out: % Inhibition Thrombin II at 83 μM) stood at 44%; against Human factor Xa (at 83 μM inhibitor) it was 23%. In addition, the pIC50 in experiment [1] is 8.02.
Take `CC(C)Nc1nc(Br)c(-c2cccc(N)c2)n(CC(=O)NCc2ccc(C(=N)N)cc2)c1=O` [Example 124]: the pIC50 against Human thrombin was 5.33; in experiment [1], 7.80. Moreover, at Human factor Xa, the “% Inhibition Factor Xa (30 µM)” value was determined as 17%.
As to `CC(C)Nc1nc(Cl)c(-c2cc(N)cc(C(=O)NC(C)(C)c3ccccc3)c2)n(CC(=O)NCc2ccc(C(=N)N)cc2)c1=O` [Example 128-4], the pIC50 was 4.62 at Human thrombin and 7.97 in experiment [1]. Further, the inhibition at 100 µM against Human factor Xa came to 42%.
Consider `CC(C)Nc1nc(Cl)c(-c2cc(N)cc(C(=O)NCc3cc(C(F)(F)F)cc(C(F)(F)F)c3)c2)n(CC(=O)NCc2ccc(C(=N)N)cc2)c1=O` [Example 128-6], for which the inhibition at 100 µM on Human thrombin is 40%; against Human factor Xa it was 29%. Further, in experiment [1], the pIC50 is 6.48.
For `CC(C)Nc1nc(Cl)c(-c2cc(N)cc(C(=O)NCc3ccccc3C(F)(F)F)c2)n(CC(=O)NCc2ccc(C(=N)N)cc2)c1=O` [Example 128-11], the inhibition at 100 µM was found to be 46% at Human thrombin and 35% on Human factor Xa. Moreover, the pIC50 in experiment [1] was 7.94.
In the same order, the values of `CC(C)Nc1nc(Cl)c(-c2cc(N)cc(C(=O)NCc3cccc(F)c3)c2)n(CC(=O)NCc2ccc(C(=N)N)cc2)c1=O` [Example 128-12] are 47%, 33% and 7.96.
As for `CC(C)Nc1nc(Cl)c(-c2cc(N)cc(C(=O)NCc3cccc(C(F)(F)F)c3)c2)n(CC(=O)NCc2ccc(C(=N)N)cc2)c1=O` [Example 128-13], the inhibition at 100 µM at Human thrombin stood at 36%; against Human factor Xa, 26%. Moreover, the pIC50 in experiment [1] was 7.31.
As to `CC(C)Nc1nc(Cl)c(-c2cc(N)cc(C(=O)NC3CCC3)c2)n(CC(=O)NCc2ccc(C(=N)N)cc2)c1=O` [Example 128-15], the pIC50 against Human thrombin is 4.88; in experiment [1], 8.18. On Human factor Xa, this compound came in with an inhibition at 100 µM of 32%.
`CC(C)Nc1nc(Cl)c(-c2cc(N)cc(C(=O)NC3CCCC3)c2)n(CC(=O)NCc2ccc(C(=N)N)cc2)c1=O` [Example 128-16]: the pIC50 against Human thrombin is 4.99; in experiment [1] it was 8.15. The compound also came in with an inhibition at 100 µM against Human factor Xa of 36%.
Turning to `CC(C)Nc1nc(Cl)c(-c2cc(N)cc(C(=O)NC3CCCCCC3)c2)n(CC(=O)NCc2ccc(C(=N)N)cc2)c1=O` [Example 128-17], the results for the pIC50 (against Human thrombin; in experiment [1]) were 4.69 and 7.96, respectively. Also, testing at 100 µM against Human factor Xa gave an inhibition of 41%.
For the compound `CC(C)Nc1nc(Cl)c(-c2cc(N)cc(C(=O)NCc3cccnc3)c2)n(CC(=O)NCc2ccc(C(=N)N)cc2)c1=O` [Example 128-18], at Human thrombin, the inhibition at 100 µM was determined as 21%. Also, the pIC50 in experiment [1] is 7.73.
For the compound `CC(C)Nc1nc(Cl)c(-c2cc(N)cc(C(=O)NCc3ccccn3)c2)n(CC(=O)NCc2ccc(C(=N)N)cc2)c1=O` [Example 128-19], the inhibition at 100 µM was found to be 37% on Human thrombin and 18% against Human factor Xa. In addition, the pIC50 in experiment [1] was 7.58.
On to `N=C(N)c1ccc(Cc2cccc(-n3c(-c4cccc(N)c4)c(Cl)nc(NC4CCC4)c3=O)c2)cc1` [Example 138], for which the inhibition at 100 µM at Human thrombin was 39%; on Human factor Xa, 28%. Besides, the inhibition at 30 µM in experiment [1] came out at 8%.
In the case of `N=C(N)c1ccc(CNCCn2c(-c3cccc(N)c3)c(Cl)nc(NC3CCC3)c2=O)cc1` [Example 139], the pIC50 against Human thrombin was 4.45; in experiment [1] it was 5.33. In addition, on Human factor Xa, the inhibition at 100 µM is 41%.
Take `N=C(N)c1ccc(COCCn2c(-c3cccc(N)c3)c(Cl)nc(NC3CCC3)c2=O)cc1` [Example 140]: the pIC50 against Human thrombin is 4.32; in experiment [1], 4.88. The compound further had an inhibition at 100 µM on Human factor Xa of 24%.
In the case of `N=C(N)c1ccc(NC(=O)Cn2c(-c3cccc(N)c3)c(Cl)nc(NC3CCC3)c2=O)cc1` [Example 141], the inhibition at 100 µM is 11% on Human thrombin and 13% against Human factor Xa. In experiment [1], the inhibition at 30 µM was determined as 2%.
With `N=C(N)c1ccc(CCC(=O)Cn2c(-c3cccc(N)c3)c(Cl)nc(NC3CCC3)c2=O)cc1` [Example 142], the pIC50 against Human thrombin is 5.34; in experiment [1], 6.70.
As for `Nc1cccc(-c2c(Cl)nc(NC3CCC3)c(=O)n2CC(=O)NCc2ccc3c(N)nsc3c2)c1` [Example 145], the values for the pIC50 (on Human thrombin; in experiment [1]) were below 4.52 and 4.57, respectively. Also, the “% Inhibition Factor Xa (30 µM)” value at Human factor Xa is listed as 3%.
`Nc1cccc(-c2c(Cl)nc(NC3CCC3)c(=O)n2CC(=O)NCc2ccc3[nH]cnc3c2)c1` [Example 146] showed a pIC50 at Human thrombin below 4.52. Further, at Human factor Xa, the “% Inhibition Factor Xa (30 µM)” value is 5%.
For `Nc1cccc(-c2c(Cl)nc(NC3CCC3)c(=O)n2CC(=O)NCc2ccc3ccnc(N)c3c2)c1` [Example 147], the pIC50 against Human thrombin and at Human factor Xa was below 4.52 in each case. Moreover, in experiment [1], the inhibition at 30 µM is 5%.
Take `O=C(Cn1c(-c2cccc(Cl)c2)c(Cl)nc(NCCc2ccccc2)c1=O)NCCc1ccncc1` [Example E-0088]: in experiment [1] (inhibitor at 100 µM), the “% Inhibition TF-VIIa (100 µM)” value is reported as 0%. At Human factor Xa (inhibitor at 100 µM), the “% Inhibition Factor Xa (100 µM)” value came out at 3%.
For `O=C(Cn1c(-c2cccc(Cl)c2)c(Cl)nc(NCCc2ccccc2)c1=O)NCCc1cccnc1` [Example E-0089], in that order: 3% and 4%.
For `O=C(Cn1c(-c2cccc(Cl)c2)c(Cl)nc(NCCc2cccc(Cl)c2)c1=O)NCCc1ccncc1` [Example E-0091], in that order: 1% and 4%.
Turning to `O=C(Cn1c(-c2cccc(Cl)c2)c(Cl)nc(NCCc2cccc(Cl)c2)c1=O)NCCc1cccnc1` [Example E-0092], the “% Inhibition TF-VIIa (100 µM)” value in experiment [1] (inhibitor at 100 µM) came to 1%. In addition, at Human factor Xa (inhibitor at 100 µM), the “% Inhibition Factor Xa (100 µM)” value is 3%.
In the same order, the values of `O=C(Cn1c(-c2cccc(Cl)c2)c(Cl)nc(NCCc2ccc(Cl)cc2)c1=O)NCCc1ccncc1` [Example E-0094] are 2% and 2%.
In the same order, the values of `O=C(Cn1c(-c2cccc(Cl)c2)c(Cl)nc(NCCc2ccc(Cl)cc2)c1=O)NCCc1cccnc1` [Example E-0095] are 2% and 4%.
In the same order, the values of `COc1ccc(-c2c(Cl)nc(NCc3ccccc3)c(=O)n2CC(=O)NCCc2ccncc2)cc1` [Example E-0097] are 0% and 3%.
`COc1ccc(-c2c(Cl)nc(NCc3ccccc3)c(=O)n2CC(=O)NCCc2cccnc2)cc1` [Example E-0098]: the “% Inhibition TF-VIIa (100 µM)” value in experiment [1] (inhibitor at 100 µM) worked out at 0%. In addition, the “% Inhibition Factor Xa (100 µM)” value on Human factor Xa (inhibitor at 100 µM) amounted to 2%.
For the compound `COc1ccc(-c2c(Cl)nc(NCCc3cccc(Cl)c3)c(=O)n2CC(=O)NCCc2ccncc2)cc1` [Example E-0103], the “% Inhibition TF-VIIa (100 µM)” value in experiment [1] (inhibitor at 100 µM) is 2%. At Human factor Xa (inhibitor at 100 µM), the “% Inhibition Factor Xa (100 µM)” value is 3%.
Consider `COc1ccc(-c2c(Cl)nc(NCCc3cccc(Cl)c3)c(=O)n2CC(=O)NCCc2cccnc2)cc1` [Example E-0104], for which the “% Inhibition TF-VIIa (100 µM)” value in experiment [1] (inhibitor at 100 µM) came out at 3%. For the same compound, the “% Inhibition Factor Xa (100 µM)” value on Human factor Xa (inhibitor at 100 µM) worked out at 5%.
For `COc1ccc(-c2c(Cl)nc(NCCc3ccc(Cl)cc3)c(=O)n2CC(=O)NCCc2ccncc2)cc1` [Example E-0106], in that order: 5% and 3%.
In the same order, the values of `COc1ccc(-c2c(Cl)nc(NCCc3ccc(Cl)cc3)c(=O)n2CC(=O)NCCc2cccnc2)cc1` [Example E-0107] are 4% and 6%.
As for `O=C(Cn1c(-c2ccc(-c3ccccc3)cc2)c(Cl)nc(NCc2ccccc2)c1=O)NCCc1ccncc1` [Example E-0109], the “% Inhibition TF-VIIa (100 µM)” value in experiment [1] was 2%. In addition, the “% Inhibition Factor Xa (100 µM)” value at Human factor Xa is recorded as 3%.
For `O=C(Cn1c(-c2ccc(-c3ccccc3)cc2)c(Cl)nc(NCc2ccccc2)c1=O)NCCc1cccnc1` [Example E-0110], in experiment [1], the “% Inhibition TF-VIIa (100 µM)” value was 0%. Also, the “% Inhibition Factor Xa (100 µM)” value on Human factor Xa worked out at 3%.
In the same order, the values of `O=C(Cn1c(-c2ccc(-c3ccccc3)cc2)c(Cl)nc(NCCc2ccccc2)c1=O)NCCc1ccncc1` [Example E-0112] are 11% and 1%.
In the same order, the values of `O=C(Cn1c(-c2ccc(-c3ccccc3)cc2)c(Cl)nc(NCCc2ccc(Cl)cc2)c1=O)NCCc1ccncc1` [Example E-0118] are 12% and 3%.
